Assay results: patent US20130158043A1, “PAK INHIBITORS FOR THE TREATMENT OF CANCER” (AFRAXIS, INC., priority 2011, published 2013)

Legend:
Experiment in all cases: In vitro PAK inhibition assay (Z'-LYTE, SelectScreen Kinase Profiling)
Format in all cases: biochemical
PAK-4 = PAK-4 (Homo sapiens, UniProt O96013); conditions: read-out: PAK4 IC50
Description: (§1) Compounds are screened in 1% DMSO (final) in the well. For 10 point titrations, 3-fold serial dilutions are conducted. All Peptide/Kinase Mixtures are diluted to a 2× working concentration in the appropriate Kinase Buffer
The 2X PAK-4/Ser/Thr 20 mixture is prepared in 50 mM HEPES pH 7.5, 0.01% BRIJ-35, 10 mM MgCl2, 1 mM EGTA. The final 10 μL Kinase Reaction consists of 0.1-0.75 ng PAK-4 and 2 μM Ser/Thr 20 in 50 mM HEPES pH 7.5, 0.01% BRIJ-35, 10 mM MgCl2, 1 mM EGTA. After the 1 hour Kinase Reaction incubation, 5 μL of a 1:256 dilution of Development Reagent A is added.
(§2) Bar-coded Corning, low volume NBS, black 384-well plate (Corning Cat. #3676) • 1. Add the following solutions to a well in a 384-well plate: 2.5 μL of 4× Test Compound OR (100 nL 100× Test Compound plus 2.4 μL kinase buffer) • 5 μL of 2× Peptide/Kinase (PAK) Mixture • 2.5 μL of 4×ATP Solution • 2. Shake the plate for 30-seconds • 3. Incubate the PAK Kinase Reaction at room temperature for 60-minutes • 4. Add 5 μL of Development Reagent Solution to each well • 5. Shake the plate for 30-seconds • 6. Incubate the Development Reaction for 60-minutes • 7. Determine the fluorescence using a fluorescence plate reader • 8. Analyze the fluorescence data
SelectScreen® Kinase Profiling Service uses XLfit from IDBS. The dose response curve is curve fit to model number 205 (sigmoidal dose-response model).

PAK3 = PAK3 (Homo sapiens, UniProt O75914)
Description: as §1
The 2×PAK3/Ser/Thr 20 mixture is prepared in 50 mM HEPES pH 7.5, 0.01% BRIJ-35, 10 mM MgCl2, 1 mM EGTA.
as §2, with “Add” for “Bar-coded Corning, low volume NBS, black 384-well plate (Corning Cat. #3676) • 1. Add”
(§3) SelectScreen® Kinase Profiling Service uses XLfit from IDBS.

PAK2 (PAK65) = PAK2 (PAK65) (Homo sapiens, UniProt Q13177)
Description: as §1
The 2×PAK2 (PAK65)/Ser/Thr 20 mixture is prepared in 50 mM HEPES pH 7.5, 0.01% BRIJ-35, 10 mM MgCl2, 1 mM EGTA. The final 10 μL Kinase Reaction consists of 0.29-6 ng PAK2 (PAK65) and 2 μM Ser/Thr 20 in 50 mM HEPES pH 7.5, 0.01% BRIJ-35, 10 mM MgCl2, 1 mM EGTA.
as §2, with “Add” for “Bar-coded Corning, low volume NBS, black 384-well plate (Corning Cat. #3676) • 1. Add”
as §3

PAK1 = PAK1 (Homo sapiens, UniProt Q13153)
Description: as §1
The 2×PAK1/Ser/Thr 19 mixture is prepared in 50 mM HEPES pH 7.5, 0.01% BRIJ-35, 10 mM MgCl2, 1 mM EGTA.
as §2, with “Add” for “Bar-coded Corning, low volume NBS, black 384-well plate (Corning Cat. #3676) • 1. Add”
as §3

PAK3, sequence (O75914 whole entry): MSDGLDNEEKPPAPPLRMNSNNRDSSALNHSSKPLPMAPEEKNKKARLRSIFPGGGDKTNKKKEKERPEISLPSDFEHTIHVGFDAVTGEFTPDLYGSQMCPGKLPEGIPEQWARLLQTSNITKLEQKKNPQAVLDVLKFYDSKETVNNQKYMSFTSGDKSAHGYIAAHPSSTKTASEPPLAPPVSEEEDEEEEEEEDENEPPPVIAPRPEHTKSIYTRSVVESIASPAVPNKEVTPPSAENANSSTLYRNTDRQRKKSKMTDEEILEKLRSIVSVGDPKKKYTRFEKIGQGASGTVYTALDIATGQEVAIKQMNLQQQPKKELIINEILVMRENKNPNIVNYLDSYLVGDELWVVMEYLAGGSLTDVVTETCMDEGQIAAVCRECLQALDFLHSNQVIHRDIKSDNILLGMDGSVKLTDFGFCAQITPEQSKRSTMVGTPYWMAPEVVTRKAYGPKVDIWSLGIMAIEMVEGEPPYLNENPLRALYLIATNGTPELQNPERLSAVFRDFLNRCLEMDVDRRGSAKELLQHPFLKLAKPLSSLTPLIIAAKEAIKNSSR
PAK1, sequence (Q13153 whole entry): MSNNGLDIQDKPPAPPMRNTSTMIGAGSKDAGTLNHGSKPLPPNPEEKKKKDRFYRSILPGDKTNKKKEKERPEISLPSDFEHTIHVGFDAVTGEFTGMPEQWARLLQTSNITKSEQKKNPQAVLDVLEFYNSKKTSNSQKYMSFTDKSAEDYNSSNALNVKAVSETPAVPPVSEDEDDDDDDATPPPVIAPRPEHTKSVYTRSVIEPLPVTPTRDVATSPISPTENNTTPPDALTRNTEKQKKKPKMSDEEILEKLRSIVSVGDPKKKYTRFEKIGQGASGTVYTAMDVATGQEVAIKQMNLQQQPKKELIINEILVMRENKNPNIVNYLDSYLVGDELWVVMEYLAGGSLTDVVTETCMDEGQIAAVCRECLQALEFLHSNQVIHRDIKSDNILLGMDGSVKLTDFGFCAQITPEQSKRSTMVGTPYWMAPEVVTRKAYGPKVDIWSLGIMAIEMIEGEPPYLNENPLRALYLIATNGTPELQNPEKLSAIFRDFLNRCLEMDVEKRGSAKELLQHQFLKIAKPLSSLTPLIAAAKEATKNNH
PAK-4, sequence (O96013 whole entry): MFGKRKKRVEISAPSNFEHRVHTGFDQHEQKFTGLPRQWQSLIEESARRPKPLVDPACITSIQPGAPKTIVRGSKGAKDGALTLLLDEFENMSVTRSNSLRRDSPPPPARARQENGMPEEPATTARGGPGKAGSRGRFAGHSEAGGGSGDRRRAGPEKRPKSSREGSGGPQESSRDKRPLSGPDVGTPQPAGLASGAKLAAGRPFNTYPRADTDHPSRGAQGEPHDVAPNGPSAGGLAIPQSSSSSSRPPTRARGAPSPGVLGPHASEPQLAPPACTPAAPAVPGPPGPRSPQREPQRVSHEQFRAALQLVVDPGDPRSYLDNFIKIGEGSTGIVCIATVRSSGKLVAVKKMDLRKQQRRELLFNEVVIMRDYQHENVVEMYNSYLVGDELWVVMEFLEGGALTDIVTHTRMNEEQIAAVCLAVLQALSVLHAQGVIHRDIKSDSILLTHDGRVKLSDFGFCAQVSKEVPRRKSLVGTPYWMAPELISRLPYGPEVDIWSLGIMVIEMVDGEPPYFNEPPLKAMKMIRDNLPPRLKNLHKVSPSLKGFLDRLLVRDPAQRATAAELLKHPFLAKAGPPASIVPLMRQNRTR
PAK2 (PAK65), sequence (Q13177 whole entry): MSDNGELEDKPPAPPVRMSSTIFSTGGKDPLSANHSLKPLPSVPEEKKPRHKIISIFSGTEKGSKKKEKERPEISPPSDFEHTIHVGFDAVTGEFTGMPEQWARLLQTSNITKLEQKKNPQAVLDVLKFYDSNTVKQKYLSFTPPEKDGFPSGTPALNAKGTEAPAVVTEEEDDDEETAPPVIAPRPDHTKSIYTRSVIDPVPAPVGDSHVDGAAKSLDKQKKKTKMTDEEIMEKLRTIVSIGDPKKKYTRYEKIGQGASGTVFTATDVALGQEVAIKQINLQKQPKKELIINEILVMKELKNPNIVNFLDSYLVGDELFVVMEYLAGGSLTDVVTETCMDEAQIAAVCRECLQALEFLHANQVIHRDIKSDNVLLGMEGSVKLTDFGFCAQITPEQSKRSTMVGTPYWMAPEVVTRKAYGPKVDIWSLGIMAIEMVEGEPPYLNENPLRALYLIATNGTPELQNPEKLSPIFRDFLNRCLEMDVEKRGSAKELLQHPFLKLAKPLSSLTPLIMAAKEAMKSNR

Structure (SMILES) | IC50 (PAK-4) | IC50 (PAK3) | IC50 (PAK2 (PAK65)) | IC50 (PAK1)
CCn1c(=O)c(-c2ccc(S(C)(=O)=O)cc2)cc2cnc(Nc3ccc(N4CCN(C)CC4)cc3)nc21 | ≥ 5000 nM | > 5000 nM | > 5000 nM | > 5000 nM
CCn1c(=O)c(-c2cccc(S(C)(=O)=O)c2)cc2cnc(Nc3ccc(N4CCN(C)CC4)cc3)nc21 | ≥ 5000 nM | 50 to 500 nM | 500 to 5000 nM | 50 to 500 nM
CCn1c(=O)c(-c2ccc(-c3cncs3)cc2Cl)cc2cnc(Nc3ccc(N4CCN(C)CC4)cc3)nc21 | ≥ 5000 nM | – | – | –
CCn1c(=O)c(-c2ccc(-c3ccnc(C(N)=O)c3)cc2Cl)cc2cnc(Nc3ccc(C4CCN(C)CC4)cc3)nc21 | ≥ 5000 nM | 50 to 500 nM | 50 to 500 nM | 50 to 500 nM
CCn1c(=O)c(-c2ccc(-c3cnc(C)s3)cc2Cl)cc2cnc(Nc3ccc(C4CCN(C)CC4)cc3)nc21 | 500 to 5000 nM | < 50 nM | < 50 nM | < 50 nM
CCN1CCC(c2ccc(Nc3ncc4cc(-c5ccc(-c6cccnc6C)cc5Cl)c(=O)n(CC)c4n3)cc2)CC1 | ≥ 5000 nM | < 50 nM | < 50 nM | < 50 nM
CCN1CCC(c2ccc(Nc3ncc4cc(-c5ccc(-c6ccc(C)nc6)cc5Cl)c(=O)n(CC)c4n3)cc2)CC1 | 500 to 5000 nM | < 50 nM | < 50 nM | < 50 nM
CCn1c(=O)c(-c2ccc(-c3cccnc3)cc2Cl)cc2cnc(Nc3ccc(CCN(C)C)cc3)nc21 | 500 to 5000 nM | < 50 nM | < 50 nM | < 50 nM
CCn1c(=O)c(-c2ccc(-c3cnc(C)s3)cc2Cl)cc2cnc(Nc3ccc(C4CCNCC4)cc3)nc21 | 500 to 5000 nM | < 50 nM | < 50 nM | < 50 nM
CCn1c(=O)c(-c2ccc(-c3cccnc3C)cc2Cl)cc2cnc(Nc3ccc(C4CCNCC4)cc3)nc21 | ≥ 5000 nM | < 50 nM | < 50 nM | < 50 nM
CCn1c(=O)c(-c2ccc(-c3ccnc(C)c3)cc2Cl)cc2cnc(Nc3ccc(C4CCNCC4)c(F)c3)nc21 | 500 to 5000 nM | 50 to 500 nM | < 50 nM | < 50 nM
CCn1c(=O)c(-c2ccc(-c3cccnc3F)cc2Cl)cc2cnc(Nc3ccc(C4CCN5CCCC5C4)cc3)nc21 (centres unmarked) | 500 to 5000 nM | < 50 nM | < 50 nM | < 50 nM
CCn1c(=O)c(-c2ccc(-c3noc(C)n3)cc2Cl)cc2cnc(Nc3ccc(CCN(C)C)cc3)nc21 | 500 to 5000 nM | < 50 nM | < 50 nM | < 50 nM
CCN1CCC(c2ccc(Nc3ncc4cc(-c5ccc(-c6noc(C)n6)cc5Cl)c(=O)n(CC)c4n3)cc2)CC1 | 500 to 5000 nM | < 50 nM | < 50 nM | < 50 nM
Cc1nc(-c2ccc(-c3cc4cnc(Nc5ccc(C6CCN(C)CC6)cc5)nc4n(C)c3=O)c(Cl)c2)no1 | ≥ 5000 nM | < 50 nM | < 50 nM | < 50 nM
CCn1c(=O)c(-c2ccc(-c3cccnc3C)cc2)cc2cnc(Nc3ccc(C4CCN(C)CC4)cc3)nc21 | ≥ 5000 nM | 500 to 5000 nM | 500 to 5000 nM | 500 to 5000 nM
CCn1c(=O)c(-c2ccc(-c3cccnc3C)cc2F)cc2cnc(Nc3ccc(C4CCN(C)CC4)cc3)nc21 | ≥ 5000 nM | 50 to 500 nM | 50 to 500 nM | 50 to 500 nM
CCn1c(=O)c(-c2ccc(-c3nccnc3C)cc2Cl)cc2cnc(Nc3ccc(C4CCN(C)CC4)cc3)nc21 | 500 to 5000 nM | < 50 nM | < 50 nM | < 50 nM
CCn1c(=O)c(-c2ccc(-c3ccnc(C)n3)cc2Cl)cc2cnc(Nc3ccc(C4CCN(C)CC4)cc3)nc21 | 500 to 5000 nM | < 50 nM | < 50 nM | < 50 nM
CCn1c(=O)c(-c2ccc(-c3cncc(C)n3)cc2Cl)cc2cnc(Nc3ccc(C4CCN(C)CC4)cc3)nc21 | 500 to 5000 nM | < 50 nM | < 50 nM | < 50 nM
CCn1c(=O)c(-c2ccc(-c3cccnc3C)nc2)cc2cnc(Nc3ccc(C4CCN(C)CC4)cc3)nc21 | ≥ 5000 nM | > 5000 nM | > 5000 nM | > 5000 nM
CN(C)CCc1ccc(Nc2ncc3cc(-c4cc(N(C)C)c(-c5cccnc5)cc4Cl)c(=O)n(C)c3n2)cc1 | ≥ 5000 nM | < 50 nM | 50 to 500 nM | < 50 nM
Cc1cc(-c2nccnc2C)ccc1-c1cc2cnc(Nc3ccc(C4CCN(C)CC4)cc3)nc2n(C)c1=O | ≥ 5000 nM | 50 to 500 nM | < 50 nM | < 50 nM
CCN1CCN(c2ccc(Nc3ncc4cc(-c5ccc(-c6cccnc6)cc5Cl)c(=O)n(CC)c4n3)cc2F)CC1 [drawing 727] | ≥ 5000 nM | < 50 nM | < 50 nM | < 50 nM

Now from value to compound:

IC50 (PAK-4) | IC50 (PAK3) | IC50 (PAK2 (PAK65)) | IC50 (PAK1) | Structure (SMILES)
500 to 5000 nM | 500 to 5000 nM | 500 to 5000 nM | 500 to 5000 nM | CN1CCN(c2ccc(Nc3ncc4ccc(=O)n(Cc5occc5C5CC5)c4n3)cc2)CC1
500 to 5000 nM | 500 to 5000 nM | 500 to 5000 nM | 50 to 500 nM | CN1CCN(c2ccc(Nc3ncc4ccc(=O)n(Cc5ncsc5C5CC5)c4n3)cc2)CC1
500 to 5000 nM | < 50 nM | < 50 nM | < 50 nM | CCn1c(=O)c(-c2ccc(-c3nnco3)cc2Cl)cc2cnc(Nc3ccc(N4CCN(C)CC4)cc3)nc21
500 to 5000 nM | 500 to 5000 nM | 50 to 500 nM | 50 to 500 nM | CCS(=O)(=O)c1ccccc1Cn1c(=O)ccc2cnc(Nc3ccc(N4CCN(C)CC4)cc3)nc21
500 to 5000 nM | 50 to 500 nM | 50 to 500 nM | 50 to 500 nM | CC#Cc1cc2cnc(Nc3ccc(N4CCN(C)CC4)cc3)nc2n(Cc2c(F)cccc2C2CC2)c1=O
50 to 500 nM | 50 to 500 nM | 50 to 500 nM | < 50 nM | CN1CCC(c2ccc(Nc3ncc4ccc(=O)n(Cc5c(F)cccc5C5CC5)c4n3)cc2)CC1
500 to 5000 nM | < 50 nM | < 50 nM | < 50 nM | CCS(=O)(=O)c1ccccc1Cn1c(=O)c(-c2ccccc2Cl)cc2cnc(Nc3ccc(N4CCN(C)CC4)cc3)nc21
500 to 5000 nM | 500 to 5000 nM | 50 to 500 nM | 50 to 500 nM | CC#Cc1cc2cnc(Nc3ccc(N4CCN(C)CC4)cc3)nc2n(Cc2ccccc2C(F)(F)F)c1=O
50 to 500 nM | < 50 nM | < 50 nM | < 50 nM | CCn1c(=O)c(-c2ccc(-c3cccnc3F)cc2Cl)cc2cnc(Nc3ccc(N4CCN(C)CC4)cc3)nc21
500 to 5000 nM | < 50 nM | < 50 nM | < 50 nM | CCn1c(=O)c(-c2ccc(-c3noc(C)n3)cc2Cl)cc2cnc(Nc3ccc(C4CCN(C)CC4)cc3)nc21
500 to 5000 nM | 50 to 500 nM | < 50 nM | < 50 nM | CCn1c(=O)c(-c2ccc(-c3noc(C)n3)cc2Cl)cc2cnc(Nc3ccc(C4CCNCC4)cc3)nc21
50 to 500 nM | < 50 nM | < 50 nM | < 50 nM | CCn1c(=O)c(-c2ccc(-c3cccnc3F)cc2Cl)cc2cnc(Nc3ccc(C4CCNCC4)cc3)nc21
50 to 500 nM | < 50 nM | < 50 nM | < 50 nM | CCn1c(=O)c(-c2ccc(-c3cccnc3F)cc2Cl)cc2cnc(Nc3ccc(C4CCN(C)CC4)cc3)nc21
50 to 500 nM | < 50 nM | < 50 nM | < 50 nM | CCn1c(=O)c(-c2ccc(-c3cnc(C)cn3)cc2Cl)cc2cnc(Nc3ccc(C4CCN(C)CC4)cc3)nc21
